Common to all, as to format: cell-based, human
The subject of experiment [1] is Nalm6-GD2. Nature of the experiment: IL-2 and IFNγ ELISA, HA CAR T cells stimulated with Nalm6-GD2 with or without EHNA. The following applies: 10 uM EHNA. On the procedure:
HA CAR T cells were stimulated with Nalm6-GD2 tumor line in the presence or absence of 10 uM of EHNA inhibitor at day 15 post-activation. IL-2 and IFNγ secretion was assessed using ELISA. One donor shown.
In some further experiments, CAR T cells overexpressing either ADA1-TM or ADA2-TM were activated with Nalm6-GD2 in the presence or absence of 10 uM of adenosine deaminase inhibitor—EHNA. It was observed that both CAR T cells overexpressing either HA-ADA1-TM or HA-ADA2-TM produced more IL-2 and IFNγ as compared to control group and this increase was abrogated in the presence of EHNA (see e.g., FIG. 12D).
(An ELISA detects its analyte on a solid surface through an enzyme-linked reagent.)

For experiment [2], the system named is NF-kB pathway. Nature of the experiment: NF-κB-GFP activation reporter in HA CAR-T cells. The source says:
FIG. 7C illustrates NFkB-GFP activation level 4 hrs after stimulation of HA CAR T cells in the presence or absence of NECA and A2aR competitive inhibitor. Data are mean s.e.m. from triplicate wells.
To test whether CAR T cells are susceptible to adenosine-mediated suppression, HA and CD19 CAR T cells were activated with plate-bounded idiotype in the presence or absence of the adenosine receptor agonist 5′-(N-ethylcarboxamido) adenosine (NECA), and analyzed the effector cytokine secretion capacity by ELISA (FIG. 6D; FIGS. 7A-7B). […] Adenosine-dependent a2aR stimulation led to elevate intracellular 3′,5′-cyclic adenosine monophosphate (cAMP) which in turn inhibited the NF-kB pathway and cell proliferation (FIG. 6A). To evaluate whether adenosine suppression of CAR T cells worked through the same mechanisms, an NF-κB activation reporter was constructed by placing the Green Fluorescence Protein (GFP) gene downstream of NF-κB response elements. HA CAR-T cells were co-transduced with this NF-kB-GFP reporter. Upon activation with plate-bound idiotype, NECA diminished activation of the NF-kB-GFP reporter (FIG. 7C). This inhibitory effect on activation was prevented by addition of the selective A2aR competitive antagonist (iA2aR), confirming A2a receptor (A2aR) involvement in the suppressive effect of NECA on HA CAR-T cells.

In experiment [3] the test system is HA and CD19 CAR T cells. Nature of the experiment: Cytokine secretion by idiotype-activated CAR T cells with NECA (ELISA). The following applies: plate-bound idiotype, NECA treatment. As to the method:
Co-culture Assays: CAR-T cells were cultured with 1 μM of CPI444 (CORVUS BIOPHARMA) for 2 to 24 hours before the duration of co-culture (unless stated otherwise) with tumor cells or plate-bound idiotype at the concentration 1 or 5 μg/ml. To stimulate a2aR, cells were treated with 0.01-0.1 mM of NECA (Torcis). For cytotoxicity assays, approximately 5×10^4 of tumor cells were co-cultured with CAR T cells at indicated ratio in 200 μL CM in 96-well flat bottom plates. Four images per well at 10× zoom were collected at each time point. Tumor cell growth was quantified by measuring total integrated GFP intensity per well using an IncuCyte ZOOM Live-Cell analysis system (Essen Bioscience) every 2-3 hr. GFP signal was normalized to the time 0 signal. Cell culture supernatants were collected at 24 hours, and interleukin-2 (IL-2) and interferon-g concentrations were determined by enzyme-linked immunosorbent assay (Biolegend). Triplicate wells were plated for each condition. […]
To test whether CAR T cells are susceptible to adenosine-mediated suppression, HA and CD19 CAR T cells were activated with plate-bounded idiotype in the presence or absence of the adenosine receptor agonist 5′-(N-ethylcarboxamido) adenosine (NECA), and analyzed the effector cytokine secretion capacity by ELISA (FIG. 6D; FIGS. 7A-7B). […]

The test system of experiment [4] is CD19.BBz CAR T cells. As to the kind of experiment: Suppression assay: IL-2 secretion by CD19 CAR T cells with HA CAR T cells present. The settings on record: CD19 CAR T cells pre-incubated with A2aR inhibitor, in the presence of adenosine-producing HA cells. As to the method:
Suppression Assay: For assessing IL-2 secretion inhibition 5×10^4 CD19 CAR T cells 5×10^4 Nalm6 tumor cells together with 5×10^4 of HA CAR or Mock T cells were cultured in 300 μL CM in 96-well flat bottom plates for 24 h. Triplicate wells were plated for each condition. Culture supernatants were collected and analyzed for IL-2 by ELISA (BioLegend).
IL-2 secreted by CD19.BBz CAR T cells co-cultured with Nalm6 leukemia cells was measured in the presence or absence of bulk or sorted CD8+HA CAR T cells for 24 hours.
To test this hypothesis that adenosine production was responsible for the suppressive function of exhausted CAR T cells over neighboring cells, whether HA CAR-T cells were able to produce adenosine in an autocrine manner was investigated (FIG. 7D). Next, CD19 CAR T cells that were pre-incubated with A2aR inhibitor were activated in the presence or absence of (CD8) HA CAR T cells.

The values below come from patent US20250134998A1, “T CELLS WITH CELL-SURFACE EXPRESSION OF ADENOSINE DEAMINASE AND USES THEREOF” (The Board of Trustees of the Leland Stanford Junior …, priority 2021, published 2025).

SMILES strings stand for the structures.

`CCCCCC[C@@H]([C@@H](C)O)n1cnc2c(N)ncnc21` (racemic) [EHNA]: in experiment [1], the “increase in IFNγ by CAR T cells overexpressing HA-ADA1-TM or HA-ADA2-TM” value is “abrogated” and the “increase in IL-2 by CAR T cells overexpressing HA-ADA1-TM or HA-ADA2-TM” value is on record as “abrogated”.
As for `CCNC(=O)[C@H]1O[C@@H](n2cnc3c(N)ncnc32)[C@H](O)[C@@H]1O` [NECA, 5′-(N-ethylcarboxamido) adenosine], the “activation of the NF-kB-GFP reporter” value in experiment [2] (plate-bound idiotype) is recorded as “diminished”. In experiment [3], the IFNγ production entry was “reduced” and the IL-2 production result was “reduced”.
With `Cc1ccc(-c2nc(N)nc3c2nnn3Cc2cccc(CO[C@H]3CCOC3)n2)o1` [iA2aR], the “IL-2 production by CD19 CAR T cells” value in experiment [4] is on record as “restored IL-2 production”. Besides, the “inhibitory effect of NECA on NF-kB-GFP reporter activation” value in experiment [2] (A2aR antagonist added) is on record as “prevented”.
